Test results taken from patent US8729026B2, “Method for inhibiting autophagy of motor neurons” (China Medical University, priority 2012, dated 2014).

Experiments:
[1] = Phase I metabolism assay, human hepatic microsomes, LC-MS/MS metabolite identification; format: in vitro ADME; conditions: butylidenephthalide 2 mM, human hepatic microsomes 0.5 mg/mL, NADPH, 37° C., 60 minutes
Text: (§1) It has been known that the medicine metabolic pathway within an organism's liver can be primarily divided into phase I and phase II metabolism. Phase I metabolism occurs mainly by the redox reaction or hydrolysis reaction of medicine, and phase II metabolism occurs mainly by […]. This example simulated the phase I and II metabolism of butylidenephthalide that occur within an organism's liver by respectively mixing butylidenephthalide with hepatic microsomes or cryopreserved hepatocytes in vitro, and the products in the reaction solution were analyzed by liquid chromatograph-tandem mass spectrometer (LC-MS/MS) to identify the metabolites and the metabolic profile. The experimental steps were as follows:
(§2) Butylidenephthalide (2 mM) was mixed respectively with K3PO4 buffer solution (100 mM, pH7.4) containing human, rats or dogs hepatic micrsomes (0.5 mg/mL). The mixture was maintained at 37° C. for 10 minutes, and then pre-warmed cofactors (NADPH (2 mM) and MgCl2 (3 mM)) were added thereto and the mixture was incubated at 37° C. for 60 minutes. Thereafter, 3-fold volume of acetonitrile containing 0.1% formic acid was added to the mixture to terminate the reaction. The mixture was centrifuged at 13000 rpm for 5 minutes, and the supernatant was then collected and analyzed by LC-MS/MS to identify the metabolites. […]

[2] = Phase II metabolism assay, human cryopreserved hepatocytes, LC-MS/MS metabolite identification; format: in vitro ADME; conditions: butylidenephthalide 50 μM, 37° C., 6 hours
Text: as §1
(§3) William's E medium containing 5×10^5 thawed human, rat or dog hepatocytes were respectively added into a 12-well culture dish, and the cells were cultured for 6 hours. Then, 0.5 mL of butylidenephthalide (50 μM) was added into the culture dish. After the cells were incubated at 37° C., 95% relative humidity and 5% CO2 for 6 hours, 2 mL of acetonitrile (100%) was added to terminate the reaction. The sample was collected, mixed adequately, and centrifuged at 45000 g, 4° C. for 10 minutes. The supernatant was then collected, dried, and analyzed by LC-MS/MS to identify the metabolites. […]

[3] = Phase II metabolism assay, rat cryopreserved hepatocytes, LC-MS/MS metabolite identification; format: in vitro ADME; conditions: butylidenephthalide 50 μM, 37° C., 6 hours
Text: as §1, §3

[4] = Phase II metabolism assay, dog cryopreserved hepatocytes, LC-MS/MS metabolite identification; format: in vitro ADME; conditions: butylidenephthalide 50 μM, 37° C., 6 hours
Text: as §1, §3

LC3-II = test: Western blotting of autophagy biomarker LC3-II in spinal cord of SOD1-G93A transgenic mice; format: in vivo, mouse; conditions: compared with untreated control; oral 500 mg/kg-body weight once daily, sacrificed in extremis; β-actin internal control
Method: SOD1-G93A transgenic mice (60-day-old) were treated with butylidenephthalide by oral administration, with a dosage of 500 mg/kg-body weight once daily. It has been indicated by research that SOD1-G93A transgenic mice lost its spinal motor neurons because of the significant increase of autophagy during the last phase of amyotrophic lateral sclerosis (which can be seen in In vivo optical imaging of motor neuron autophagy in a mouse model of amyotrophic lateral sclerosis. Autophagy 7:9, 1-8; September 2011, which is entirely incorporated hereinto by reference). Therefore, in this example, the SOD1-G93A transgenic mice in experimental group were sacrificed in extremis to collect their spinal cord, and the proteins were extracted from the spinal cord to perform Western blotting and to analyze the protein biomarker of autophagy, LC3-II, which was used to determine whether autophagy occurred in the lumbar spinal motor neurons of the mice, wherein β-actin was used as an internal control.

NSCs (neural stem cells) = test: Cellular experiment: H2O2-stimulated autophagy of NSCs, LC3-II by Western blotting; format: cell-based, mouse; conditions: 10 μg/mL butylidenephthalide for 12 hours, then H2O2 (2500 μM/mL) for 12 hours
Method: Cellular experiment was performed by using NSCs (neural stem cells) which can differentiate into mouse motor neurons to imitate mouse motor neurons.
NSCs were incubated in a culture dish (10 cm in diameter). The cells were washed with PBS when grown to a density of 60% confluence, and treated with different concentrations of butylidenephthalide for 12 hours. The cells were then treated with H2O2 (2500 μM/mL) for 12 hours to stimulate the autophagy of cells. Then, the cells were collected and the proteins were extracted, and the protein expression level of LC3-II in NSC was analyzed by SDS-PAGE and Western blotting.

[5] = tested on: SOD1-G93A transgenic mice; test: BBB Locomotor Rating Scale of hind limbs of SOD1-G93A transgenic mice; format: in vivo, mouse; conditions: oral, 500 mg/kg-body weight once daily from 60 days of age; normal mice 21 points
Method: SOD1-G93A transgenic mice (60-day-old) were treated with butylidenephthalide by oral administration, with a dosage of 500 mg/kg-body weight once daily. After the mice were treated for 30 days, the hind limbs of the mice were examined by BBB scale (Basso, Beattie, and Bresnahan (BBB) Locomotor Rating Scale). The BBB scale of the hind limbs of normal mice was 21 points, while the BBB scale of disease-progressed SOD1-G93A transgenic mice decreased from 21 to 0 points, wherein the lower scale represents a more severe action disorder in the mice. BBB scale is used to record the drug efficiency.

[6] = Phase I metabolism assay, dog hepatic microsomes, LC-MS/MS metabolite identification; format: in vitro ADME; conditions: butylidenephthalide 2 mM, dog hepatic microsomes 0.5 mg/mL, NADPH, 37° C., 60 minutes
Text: as §1, §2

spinal motor neurons = test: Histochemical staining (hematoxylin and eosin): count of spinal motor neurons of SOD1-G93A transgenic mice; format: in vivo, mouse; conditions: spinal cord, mice sacrificed in extremis, oral 500 mg/kg-body weight once daily
Method: SOD1-G93A transgenic mice (60-day-old) were treated with butylidenephthalide by oral administration, with a dosage of 500 mg/kg-body weight once daily. The SOD1-G93A transgenic mice in the experimental group were sacrificed in extremis, and the spinal cord was collected to perform hematoxylin and eosin stain. The number of motor neurons in the spinal cord was observed and counted by using a microscope, and the data was compared with that of the untreated control group.

[7] = tested on: SOD1-G93A transgenic mice; test: Survival of SOD1-G93A transgenic mice (amyotrophic lateral sclerosis model); format: in vivo, mouse; conditions: 60-day-old SOD1-G93A transgenic mice, oral, 500 mg/kg-body weight once daily; for Survival days: n = 8, 500 mg/kg
Text: It has been known that about 20% of amyotrophic lateral sclerosis patients were associated with mutations in the gene that encodes Cu/Zn superoxide dismutase enzyme (SOD1), and G93A was the major mutation site. […] A SOD1-G93A transgenic mouse will show the symptoms of amyotrophic lateral sclerosis within about 90±5 days postnatal and will die within about 125±5 days postnatal.
This example used the above SOD1-G93A transgenic mice as the object of study to perform in vivo analysis. SOD1-G93A transgenic mice (60-day-old) were treated with butylidenephthalide (purchased from ECHO Chemical) by oral administration, with a dosage of 500 mg/kg-body weight once daily, wherein the unit “mg/kg-body weight” means the dosage required per kg-body weight.

[8] = Phase I metabolism assay, rat hepatic microsomes, LC-MS/MS metabolite identification; format: in vitro ADME; conditions: butylidenephthalide 2 mM, rat hepatic microsomes 0.5 mg/mL, NADPH, 37° C., 60 minutes
Text: as §1, §2

CCCC=C1OC(=O)c2ccccc21 [butylidenephthalide]
metabolites produced (phase I metabolism) [1]: compounds (2) to (9)
metabolites produced (phase II metabolism) [2]: compounds (11) to (14)
metabolites produced (phase II metabolism) [3]: compounds (11) to (14)
metabolites produced (phase II metabolism) [4]: compounds (11) to (14)
protein expression level of LC3-II and pLC3-II in cervical, thoracic and lumbar spinal cord (LC3-II): significantly decreased
protein expression level of LC3-II in NSC (NSCs (neural stem cells)): decrease the protein expression level of LC3-II
BBB scale of the hind limbs, after 135 days (decreased rapidly) [5]: 16 to 0 points
BBB scale of the hind limbs, from 125 to 135 days (decreased slowly) [5]: 21 to 16 points
metabolites produced (phase I metabolism) [6]: compounds (2) to (9)
The number of motor neurons (spinal motor neurons; control group 3 ± 3.1): 24
The number of motor neurons (spinal motor neurons; control group 3 ± 3.1, listed as n-BP): 24 ± 4.2
life lengthened as compared to untreated control group [7]: about 22±2 days
Survival days [7]: about 149±4.39 days
Survival days ([7]; listed as n-BP): 149 ± 4.39 days
metabolites produced (phase I metabolism) [8]: compounds (2) to (9)
